Results reported in PubChem BioAssay (NCI).
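In this assay, cells in 96-well plates receive the compound at five concentrations for 48 hours. Endpoints are linearly interpolated between the surrounding concentrations. GI50 is the concentration that inhibits growth by half. TGI: total growth inhibition.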

Tests used:
Test in all cases: inhibition of tumour cell growth, NCI panel, 48 h
NCI-H522 lung = system: NCI-H522 lung
PC-3 prostate = system: PC-3 prostate
U251 CNS = system: U251 CNS
SF-295 CNS = system: SF-295 CNS
IGROV1 ovarian = system: IGROV1 ovarian
SF-539 CNS = system: SF-539 CNS
SK-OV-3 ovarian = system: SK-OV-3 ovarian
SK-MEL-28 melanoma = system: SK-MEL-28 melanoma
DU-145 prostate = system: DU-145 prostate
HOP-92 NSCLC = system: HOP-92 NSCLC

Compound	GI50 (NCI-H522 lung) [µM]	TGI (NCI-H522 lung) [µM]	GI50 (PC-3 prostate) [µM]	TGI (PC-3 prostate) [µM]	GI50 (U251 CNS) [µM]	TGI (U251 CNS) [µM]	GI50 (SF-295 CNS) [µM]	TGI (SF-295 CNS) [µM]	GI50 (IGROV1 ovarian) [µM]	TGI (IGROV1 ovarian) [µM]	GI50 (SF-539 CNS) [µM]	TGI (SF-539 CNS) [µM]	GI50 (SK-OV-3 ovarian) [µM]	TGI (SK-OV-3 ovarian) [µM]	GI50 (SK-MEL-28 melanoma) [µM]	TGI (SK-MEL-28 melanoma) [µM]	GI50 (DU-145 prostate) [µM]	TGI (DU-145 prostate) [µM]	GI50 (HOP-92 NSCLC) [µM]	TGI (HOP-92 NSCLC) [µM]
CSC(=S)N/N=C(\C)c1ccccn1	0.0339	0.368	0.0452	> 82.2	0.199	13.6	0.255	8.38	0.171	17.4	0.366	3.54	0.589	15.2	0.429	17.5	0.465	12.2	1.39	26.1
Cn1c(=O)c(Cc2ccc(F)cc2F)cc2cnc(NC3CCOCC3)nc21	> 25	> 25	> 25	> 25	> 25	> 25	> 25	> 25	> 25	> 25	> 25	> 25	> 25	> 25	> 25	> 25	> 25	> 25	2.13	> 25
COc1cc(/C=C/C(=O)c2ccc(Nc3nc(Nc4ccc(F)cc4)nc(Nc4ccc(F)cc4)n3)cc2)cc(OC)c1OC	3.1	> 100	3.18	> 100	7.92	> 100	28.8	> 100	3.59	> 100	11.8	> 100	80.7	> 100	26.7	> 100	> 100	> 100	2.3	42.6
CC1=C(C(=O)Nc2ccc(F)c(Cl)c2)C(c2cccc(Cl)c2)NC(=O)N1 (stereo not drawn)	15.9	33	17.2	46.9	16.5	32.5	20.2	50.9	12.4	31.3	19.6	37.2	19.1	44.6	13.8	28	20.6	55.8	15.5	33
Oc1ccc2ccccc2c1/C=N\Nc1ccccn1	0.413	–	0.933	> 100	0.427	97.3	0.64	2	0.273	2.05	0.529	> 26.8	0.64	> 55	8.81	> 100	0.482	–	0.403	> 100
O=Nc1c(-c2cccc([N+](=O)[O-])c2)nc2ncccn12	10.6	25.1	13.7	36.3	13.9	32.5	21.9	66.5	10.3	23.4	15.8	31	22.8	59.6	15.2	30.2	4.24	16.8	3.19	21.6
COc1ccc(C2CC(c3cc(OC)c(OC)c(OC)c3)=NN2)cc1 (stereo not drawn)	3.43	35.9	6.03	> 100	4.52	> 100	4.99	> 100	5.98	> 100	5.88	36.6	12.4	> 100	38.7	> 100	33.9	> 100	20.1	> 100
Cc1cc(S(N)(=O)=O)c(S/C(=N\NS(=O)(=O)c2ccc(Cl)cc2)c2ccc(Cl)cc2)cc1Cl	> 100	> 100	56.8	> 100	62.8	> 100	> 100	> 100	> 100	> 100	> 100	> 100	> 100	> 100	> 100	> 100	> 100	> 100	> 100	> 100
O=C(O)/C(Cl)=C(/Cl)C(=O)Nc1cccc(Cl)c1	–	10.1	–	38.5	–	59.9	–	> 62.2	–	39	–	> 70.3	–	25.4	–	32.8	–	> 100	–	30.8
O=Cc1ccc(C(F)(F)F)cc1.[C-]#[O+].[C-]#[O+].[C-]#[O+].[Cr]	23.7	> 100	31.2	> 100	26.8	> 100	38.1	> 100	18.7	> 100	18.5	54.3	31.3	> 100	63	> 100	20.9	94.9	24.8	> 100
O=C1NC(=NCCc2ccccc2Cl)S/C1=C\c1ccc2ncccc2c1	4.13	12.3	6.26	> 25	2.64	> 21.4	2.14	> 11.2	5.75	> 25	3.13	13.2	5.94	> 20.4	10.7	> 25	6.9	> 25	4	22.2
Cc1c2c(nn1-c1ccc(S/N=C3\SCC(=O)CN3c3ccccc3)cc1)-c1ccccc1CC2	15.4	> 50	20.4	> 50	21.1	> 50	> 50	> 50	8.31	21.4	22.4	> 50	43.3	> 50	28.5	> 50	43.9	> 50	> 50	> 50
NCCOc1ccccn1	–	> 100	–	> 100	–	> 100	–	> 100	–	> 100	–	> 100	–	> 100	–	> 100	–	> 100	–	> 100
CC1SC(c2cccs2)N(NC(=O)C(O)c2ccccc2)C1=O (stereo not drawn)	> 100	> 100	> 100	> 100	> 100	> 100	> 100	> 100	> 100	> 100	> 100	> 100	> 100	> 100	> 100	> 100	> 100	> 100	> 100	> 100
CC(C)(C)c1ccc(-c2nnc(SCc3ccc(Cl)cc3)n2-c2cccc(C(F)(F)F)c2)cc1	–	> 100	–	> 100	–	> 100	–	> 100	–	> 100	–	> 100	–	> 100	–	> 100	–	> 100	–	> 100
C[n+]1c2ccccc2c(NC2CCNCC2)c2[nH]c3ccccc3c21	0.124	0.699	1.53	5.75	0.198	1.91	0.64	8.32	0.363	5.05	1.48	6.83	0.302	3	1.03	2.95	0.2	4.32	1.15	6.86
COc1ccc2c(CNCCCCO)cc3cc4c(cc3c2c1)OCO4	0.228	2.93	0.986	7.18	1.85	7.29	0.624	4.68	0.407	4.75	1.26	4.13	4.2	23.8	4.93	11	1.33	7.09	0.598	4.4
